Data published in patent US7521540B2, “CYR61 compositions and methods” (Munin Corporation, priority 1996, dated 2009).

What was measured:
platelets = experiment: Platelet adhesion assay; type: cell-based, human
Protocol: Microtiter wells were coated with purified recombinant Fisp12/mCTGF or Cyr61, and the adhesion of isolated platelets to these proteins was detected with ^125I-mAb15, an anti-β3 monoclonal antibody (Frelinger et al., J. Biol. Chem 265:6346-6352 [1990]). Platelets were obtained from venous blood drawn from healthy donors and collected into acid-citrate-dextrose (ACD). Washed platelets were prepared by diffenential centrifugation as described (Kinlough-Rathbone et al. Thromb. Haemostas 2:291-308 [1997]), and finally resuspended in HEPES-Tyrode's buffer (5 mM HEPES, pH 7.35, 1 mM MgCl2, 1 mM CaCl2, 135 mM NaCl, 2.7 mM KCl, 11.9 mM NaHCO3, 1 mg/ml dextrose and 3.5 mg/ml BSA). The platelet concentration was adjusted to […].
Microtiter wells (Immulon 2 removawell strips, Dynex Technologies, Inc.) were coated with Cyr61, Fisp12/mCTGF, or fibrinogen (25 μg/ml, 50 μl/well) incubated overnight at 22° C., and then blocked with 3% BSA at 37° C. for 2 hours. Washed platelets were added to the wells (100 μl/well) in the presence and absence of platelet agonists and incubated at 37° C. for 30 minutes. The wells were washed with HEPES-Tyrode's buffer and adherent platelets were detected with ^125I-mAb15, an anti-β3 monoclonal antibody. Exposure to the labeled antibody ([…], 50 μl/well) proceeded for 1 hour at 22° C. After extensive washing with HEPES-Tyrode's buffer, bound radioactivity was determined by γ-counting. In inhibition studies, washed platelets were pre-incubated with blocking peptides or antibodies at 37° C. for 15 minutes prior to addition to microtiter wells.
The anti-β3 antibody was radioiodinated with carrier-free Na^125I (Amersham Corp.) using the IODO-BEADS iodination reagent (Pierce) to a specific activity of approximately 2 μCi/μg. […] As controls, BSA- and fibrinogen-coated (KabiVitrum Inc.) wells were also used. Initially, the adhesion of unactivated versus activated platelets to immobilized Fisp12/mCTGF and Cyr61 was compared. To ensure that plateltes were not activated during the washing procedures, PGl2 (100 nM), which inhibits activation by raising platelet cAMP levels, was added to the platelet suspensions. […]

[1] = test system: Human Microvascular Endothelial Cells; experiment: In vitro migration assay for angiogenesis inhibitors; type: cell-based; conditions: for migrating cells per set of three high-powered fields, Cyr61 plus compound: Cyr61 1 μg/ml plus 10 mM compound
Protocol: As in the preceding Example, human microvascular endothelial cells (Clonetics) were used. In one series of assays, several carbohydrates and carbohydrate derivatives were analyzed. These compounds included 10 mM mannose, 10 mM mannose-6-phosphate, and 10 mM galactose. […] Cyr61 plus galactose induced the migration of approximately 74 cells per set of three high-powered fields. […] The angiogenic activity of basic FGF (10 ng/ml) was also tested, as described above, with and without mannose-6-phosphate. In the presence of 10 mM mannose-6-phosphate, bFGF induced 51 cells per set of three high-powered fields to migrate; in its absence, bFGF induced the migration of approximately 52 cells. […] The effect of mannose-6-phosphate on IGF II activity was anticipated because mannose-6-phosphate is known to compete with IGF II for their common receptor (the IGF II receptor). […] Moreover, because there is an essentially perfect correlation between the in vitro migration assay and the in vivo angiogenesis assay, described below, mannose-6-phosphate has been identified as an inhibitor of angiogenesis based on the results of the assay disclosed herein. Accordingly, the invention contemplates a method of inhibiting angiogenesis comprising the step of administering an inhibitor the angiogenic activity of Cyr61 such as mannose-6-phosphate. Assays such as that described above may also be used to screen for other inhibitors of angiogenesis which may be useful in the treatment of diseases associated with angiogenesis such as cancer, and diseases of the eye which are accompanied by neovascularization.

[2] = test system: 1064SK primary human foreskin fibroblasts; experiment: Fibroblast adhesion assay (methylene blue, A620); type: cell-based; conditions: for concentration that inhibited cell adhesion to Cyr61: in cell suspension; for 1064SK adhesion to Cyr61-coated wells with agent: Cyr61 2 μg/ml, agent at the level stated in the block, Mg2+ 5.0 mM after EDTA; for 1064SK adhesion to vitronectin-coated wells with agent: vitronectin 0.5 μg/ml; for 1064SK adhesion to Type I collagen-coated wells with agent: Type I collagen 2 μg/ml
Protocol: The ability of Cyr61 to mediate cell adhesion in normal fibroblasts was investigated. Microtiter wells were coated with purified recombinant Cyr61 protein, and 1064SK primary human foreskin fibroblasts were allowed to adhere under serum-free conditions. […] 50 μl cell suspensions were plated on microtiter wells coated with varying concentrations (0.5-5.0 μg/ml) of Cyr61 protein. After incubation at 37° C. for 30 minutes, adherent cells were fixed and stained with methylene blue.
In another experiment, microtiter wells were coated with either BSA, Cyr61 (2 μg/ml), or vitronectin (VN; 0.5 μg/ml) and blocked with affinity-purified anti-Cyr61 antibodies for one hour at 37° C. before 1064SK cells were plated.
The effects of divalent cations in cell adhesion to Cyr61 was also investigated. […] Data are means from triplicate determinations. […] Inhibition by Ca^2+ is characteristic of adhesion through some members of the β1 family of integrins, including receptors that bind type I collagen, laminin, and vitronectin (integrins α2β1, α6β1, and αVβ1) in fibroblasts, as well as the lymphocyte-specific integrin αLβ2.
The effects of RGD peptides on Cyr61-mediated fibroblast binding was tested by plating cells in wells coated with Cyr61 (2 μg/ml). Type I collagen (2 μg/ml) or vitronectin (0.5 μg/ml), 2 mM GRGDSP or GRGESP peptide was then added.
Cells were also pre-incubated with 40 μg/ml monoclonal antibodies against the integrin α5 or the integrin αV subunits at room temperature for 30 minutes, then plated on wells coated with Cyr61 (2 μg/ml), vitronectin (0.5 μg/ml) or fibronectin (FN, 1 μg/ml). […] The data are means, representative of three experiments.
The 1064 SK cells were also analyzed using the monoclonal antibody JBIA, which binds the β1 integrin subunit. Cells were pre-incubated with the antibody (50 μg/ml) before plating on microtiter wells coated with Cyr61 (2 μg/ml), Type I collagen (2 μg/ml), or vitronectin (0.5 μg/ml). […] Data are means, representative of three experiments.
To identify the specific β1 integrin that mediates fibroblast adhesion to Cyr61, the inhibitory effects of function-blocking monoclonal antibodies were tested against various integrin α subunits. […] The data are means, representative of at least three experiments.

HUVE cells = experiment: HUVE cell attachment to murine Cyr61-coated plates; type: cell-based, human; conditions: Cyr61-coated surfaces
Protocol: Another embodiment of the invention is directed to the use of Cyr61 to mediate cellular attachment to the extracellular matrix. Induction of cellular adhesion was investigated using murine Cyr61, fibronectin, and bovine serum albumin (BSA). Immunological 96-well plates (Falcon brand) were coated with 50 μl of 0.1% BSA in PBS at 4° C. in the presence of 0-30 μg/ml concentrations of murine Cyr61 or fibronectin. After two hours exposure to the coating solution, non-diluted immune or pre-immune antisera (30 μl/well), or affinity-purified anti-Cyr61 antibodies were added. For some wells, the coating mixture was adjusted to 10 mM DTT or 100 mM HCl. After 16 hours incubation, the coating solution was removed and the well surface was blocked with 1% BSA in phosphate-buffered saline (PBS) for 1 hour at room temperature. HUVE cells were plated in Ham's complete F12K medium [GIBCO-BRL, Inc.; Ham, Proc. Natl. Acacd. Sci. (USA) 53:786 (1965)] at 5×10^3-10^4 cells/well. Cycloheximide was added to 100 μg/ml immediately before plating and monensin was added to 1 μM 14 hours before plating. After a 2-hour incubation at 37° C., the wells were washed with PBS and attached cells were fixed and stained with methylene blue. The attachment efficiency was determined by quantitative dye extraction and measurement of the extract absorbance at 650 nm. Oliver et al., J. Cell. Sci. 92:513-518 (1989).

RGES [reference compound]
effect of agent on adhesion of ADP-activated platelets to fibrinogen (platelets): not by RGES or LM609

O=C[C@H](O)[C@@H](O)[C@@H](O)[C@H](O)CO [galactose]
migrating cells per set of three high-powered fields, Cyr61 plus compound [1]: approximately 74 cells

Chondroitin sulfate A [chondroitin A]
concentration that inhibited cell adhesion to Cyr61 [2]: 1000 µg/mL

IGF-II: Insulin Growth Factor II
migrating cells, chemoattractant without mannose-6-phosphate ([1]; bFGF 10 ng/ml, Cyr61, IGF-II): ~47 cells

[Na+].[O-][Cl+2]([O-])[O-] [sodium chlorate]
inhibition of cell adhesion to other substrates ([2]; 40 mM, fibronectin, type I collagen, vitronectin, laminin): 10-20%
inhibition of cell adhesion to Cyr61 ([2]; sodium chlorate 40 mM): 90%

O=C[C@@H](O)[C@@H](O)[C@H](O)[C@H](O)COP(=O)(O)O [mannose-6-phosphate]
migrating cells induced by Cyr61 in presence of compound [1]: approximately 12 cells
migrating cells induced by IGF-II in presence of compound [1]: ~11 cells
migrating cells per set of three high-powered fields, Cyr61 plus compound [1]: approximately 2 cells
migrating cells induced by bFGF in presence of compound ([1]; bFGF 10 ng/ml, 10 mM compound): 51 cells

O=S(=O)([O-])[O-].[Mg+2] [MgSO4, magnesium sulfate]
effect of agent on fibroblast adhesion to Cyr61 [2]: resuced

C[C@@H]1C[C@@H]([C@H](O)CC2CC(=O)NC(=O)C2)C(=O)[C@@H](C)C1 [cycloheximide]
effect of agent on HUVE cell adhesion to Cyr61 (HUVE cells): insensitive

chondroitinase A, B, C
1064SK adhesion to Cyr61-coated wells with agent [2]: 0.57 A620
1064SK adhesion to fibronectin-coated wells with agent ([2]; fibronectin 1 μg/ml): 0.65 A620
1064SK adhesion to vitronectin-coated wells with agent [2]: 0.69 A620

Chondroitin sulfate C [chondroitin C]
inhibition of adhesion to Cyr61 ([2]; 0.01-1000 μg/ml): failed to inhibit adhesion to Cyr61 at all concentrations tested

heparan sulfate
concentration that inhibited cell adhesion to Cyr61 [2]: 0.1 µg/mL

CCCCC[C@H](O)/C=C/[C@@H]1[C@H]2C/C(=C/CCCC(=O)O)O[C@H]2C[C@H]1O [PGl2]
effect of agent on activated platelet adhesion to Cyr61 and Fisp12/mCTGF (platelets): significantly inhibited

O=C(O)CN(CCOCCOCCN(CC(=O)O)CC(=O)O)CC(=O)O [EGTA]
effect of agent on HUVE cell adhesion to Cyr61 (HUVE cells): completely abolished

[Ca+2] [Ca^2+]
effect of agent on fibroblast adhesion to Cyr61 [2]: abolished cell adhesion to Cyr61 competely

laminin
1064SK adhesion to coated protein, nothing added ([2]; Cyr61 2, VN 0.5, Type I collagen 2, fibronectin 1, laminin 5 μg/ml): 0.62 A620

GRGDSP
1064SK adhesion to Cyr61-coated wells with agent [2]: ~0.48 A620
1064SK adhesion to Type I collagen-coated wells with agent [2]: 0.47 A620
1064SK adhesion to vitronectin-coated wells with agent [2]: 0.05 A620
effect of agent on activated platelet adhesion to Cyr61 and Fisp12/mCTGF (platelets): specifically inhibited

CC[C@@]1([C@@H]2O[C@@H]([C@H]3O[C@@](O)(CO)[C@H](C)C[C@@H]3C)C[C@@H]2C)CC[C@H]([C@]2(C)CC[C@]3(C[C@H](O)[C@@H](C)[C@@H]([C@@H](C)[C@@H](OC)[C@H](C)C(=O)O)O3)O2)O1 [monensin]
effect of agent on HUVE cell adhesion to Cyr61 (HUVE cells): insensitive

[Mg+2] [Mg^2+]
effect of agent on fibroblast adhesion to Cyr61 [2]: had no effect
1064SK adhesion to Cyr61-coated wells with agent [2]: 0.50 A620
1064SK adhesion to Type I collagen-coated wells with agent [2]: 0.58 A620
1064SK adhesion to vitronectin-coated wells with agent [2]: 0.55 A620

Chondroitin sulfate B (Dermatan sulfate) [chondroitin B]
concentration that inhibited cell adhesion to Cyr61 [2]: 10 µg/mL

GRGESP
1064SK adhesion to Cyr61-coated wells with agent [2]: ~0.46 A620
1064SK adhesion to Type I collagen-coated wells with agent [2]: 0.49 A620
1064SK adhesion to vitronectin-coated wells with agent [2]: 0.41 A620

[Mn+2] [Mn^2+]
effect of agent on fibroblast adhesion to Cyr61 [2]: had no effect
